Experimental findings from PubChem BioAssay (NCI) are described below.

Several values for one entry are separate records, joined by “and”; a condition that tells them apart may be missing. Identical values can stand only once.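 Where inhibition never reached the appropriate level, the endpoint shown equals the highest concentration tested. Otherwise, values were interpolated linearly from a five-concentration, 48-hour dose response in 96-well plates. GI50: concentration for 50% inhibition of growth. TGI denotes the concentration required for complete inhibition of growth.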 Bounds are passed on as bounds.

Test systems include SK-MEL-28 melanoma; HS 578T breast; NCI-H226 lung; HOP-62 NSCLC; SK-MEL-2 melanoma; HL-60(TB) leukemia; A549 NSCLC; RPMI-8226 leukemia; DU-145 prostate; SF-268 CNS.
Common to all, as to experiment: inhibition of tumour cell growth, NCI panel, 48 h

Consider `COC(=O)/C=C1/SC(=Nc2cccc(Cl)c2)N(CCc2c[nH]c3ccc(O)cc23)C1=O`, for which the GI50 in the experiment with SK-MEL-28 melanoma was 1.69 µM; with HS 578T breast it was 2.68 µM; with NCI-H226 lung it was 1.65 µM; with HOP-62 NSCLC, 1.9 µM; with SK-MEL-2 melanoma, 1.53 µM; in the experiment on HL-60(TB) leukemia, 1.79 µM. In addition, the GI50 in the experiment on A549 NSCLC is 2.65 µM; in the experiment on RPMI-8226 leukemia, 1.24 µM; with DU-145 prostate, 1.86 µM; with SF-268 CNS, 1.76 µM. Besides, the TGI in the experiment on SK-MEL-28 melanoma is 3.33 µM; with HS 578T breast, 8.99 µM; with NCI-H226 lung, 3.08 µM; in the experiment with HOP-62 NSCLC it was 3.93 µM; in the experiment with SK-MEL-2 melanoma, 3.08 µM; with HL-60(TB) leukemia it was 6.09 µM. The TGI was 6.95 µM in the experiment with A549 NSCLC, 3.98 µM with RPMI-8226 leukemia, 4.81 µM in the experiment with DU-145 prostate and 4.47 µM with SF-268 CNS.

With `COc1ccc(-c2ncnc3c2ncn3CC#CCCl)cc1`, the GI50 in the experiment with SK-MEL-28 melanoma is 9.87 µM; in the experiment with HS 578T breast it was 3.8 µM; in the experiment with NCI-H226 lung, 4.45 µM; in the experiment on HOP-62 NSCLC, 1.79 µM; in the experiment on HL-60(TB) leukemia, 3.06 µM; with A549 NSCLC, 7.39 µM. In addition, the values for the GI50 with RPMI-8226 leukemia, in the experiment with DU-145 prostate and in the experiment with SF-268 CNS were 3.46 µM, 4.74 µM and 1.66 µM, respectively. Moreover, the TGI in the experiment on SK-MEL-28 melanoma turned out to be 21.8 µM; with HS 578T breast it was 22.1 µM; in the experiment on NCI-H226 lung it was 26.2 µM; in the experiment with HOP-62 NSCLC, 3.31 µM; with HL-60(TB) leukemia, 17.6 µM; in the experiment with A549 NSCLC, 30.7 µM. Further, the TGI stood at 20 µM in the experiment on RPMI-8226 leukemia, 18.4 µM in the experiment on DU-145 prostate and 4.13 µM with SF-268 CNS.

Regarding `O=C(O)Cc1cccc2c(=O)cc(-c3ccccc3)oc12`, the GI50 is 533 µM with SK-MEL-28 melanoma; 415 µM with HS 578T breast; 363 µM in the experiment with NCI-H226 lung; 844 µM in the experiment with SK-MEL-2 melanoma; 142 µM in the experiment with HL-60(TB) leukemia; 728 µM in the experiment with A549 NSCLC. Besides, the GI50 is 388 µM in the experiment with RPMI-8226 leukemia, over 250 µM with DU-145 prostate and 814 µM with SF-268 CNS. Moreover, the TGI with SK-MEL-28 melanoma is over 1000 µM; with HS 578T breast, 209 µM and 889 µM; in the experiment on NCI-H226 lung, 250 µM and > 1000 µM; in the experiment on HOP-62 NSCLC, 250 µM and > 1000 µM; in the experiment with SK-MEL-2 melanoma, 250 µM and > 1000 µM; with HL-60(TB) leukemia, > 250 µM and 193 µM. The TGI in the experiment on A549 NSCLC is 250 µM and > 1000 µM; in the experiment on RPMI-8226 leukemia, 250 µM and > 1000 µM; in the experiment on DU-145 prostate it was over 1000 µM; with SF-268 CNS it was over 1000 µM.

`CCOC(=O)c1ccc(-n2cnc(-c3ccc([N+](=O)[O-])cc3)c2)cc1`: the TGI with SK-MEL-28 melanoma, in the experiment with HS 578T breast, in the experiment with NCI-H226 lung, in the experiment with HOP-62 NSCLC, with SK-MEL-2 melanoma and with HL-60(TB) leukemia was over 100 µM throughout. The TGI with A549 NSCLC, in the experiment on RPMI-8226 leukemia, in the experiment with DU-145 prostate and in the experiment with SF-268 CNS was over 100 µM in each case.

Turning to `O=C1c2c(c(=O)[nH]c3ccccc23)[C@H](c2ccccc2)[C@@H]2CCCN12`, the GI50 with SK-MEL-28 melanoma is 3.69 µM; with HS 578T breast, 2.89 µM; in the experiment with NCI-H226 lung it was 2.05 µM; in the experiment on HOP-62 NSCLC, 4.32 µM; in the experiment on SK-MEL-2 melanoma, 4.17 µM; in the experiment on HL-60(TB) leukemia, 1.98 µM. Besides, the GI50 in the experiment on A549 NSCLC is 20.2 µM; in the experiment with RPMI-8226 leukemia, 4.83 µM; with DU-145 prostate, 3.38 µM; with SF-268 CNS, 3.68 µM. In addition, the TGI was determined as 32.9 µM in the experiment on SK-MEL-28 melanoma; 11.1 µM with HS 578T breast; 13.8 µM in the experiment with NCI-H226 lung; 34 µM with HOP-62 NSCLC; 46.7 µM with SK-MEL-2 melanoma; 8.29 µM with HL-60(TB) leukemia. In addition, the TGI is over 100 µM with A549 NSCLC, 48.4 µM with RPMI-8226 leukemia, 27.5 µM in the experiment on DU-145 prostate and 23 µM in the experiment with SF-268 CNS.

In the case of `C=CCC1(C(=O)OC)CCC/C(=N\O)C1` (stereo not drawn), the TGI in the experiment with SK-MEL-28 melanoma, in the experiment on HS 578T breast, in the experiment with HOP-62 NSCLC, in the experiment on HL-60(TB) leukemia, with A549 NSCLC and in the experiment with RPMI-8226 leukemia was over 10 µM throughout. The TGI in the experiment on DU-145 prostate and in the experiment with SF-268 CNS was over 10 µM throughout.

Consider `CC(C)(C)OC(=O)C1C(=O)NC(=O)CC1CC(OCc1ccccc1)C(OCc1ccccc1)C(COCc1ccccc1)OCc1ccccc1` (stereo not drawn), for which the GI50 is > 100 µM and 18.7 µM with SK-MEL-28 melanoma; 33 µM and 14 µM with NCI-H226 lung; > 100 µM and 34 µM with HOP-62 NSCLC; 16.6 µM and 2.81 µM in the experiment on HL-60(TB) leukemia; 26 µM and 5.23 µM with A549 NSCLC; 21.5 µM and 7.16 µM with RPMI-8226 leukemia. In addition, the GI50 in the experiment with SF-268 CNS is 46.8 µM and 16.1 µM. Also, the TGI in the experiment with SK-MEL-28 melanoma is over 100 µM; in the experiment with HS 578T breast it was over 100 µM; in the experiment with NCI-H226 lung, over 100 µM; in the experiment on HOP-62 NSCLC, over 100 µM; in the experiment on HL-60(TB) leukemia, 46.5 µM and 11.1 µM; in the experiment on A549 NSCLC, > 100 µM and 28.5 µM. Moreover, the TGI in the experiment on RPMI-8226 leukemia was > 100 µM and 34.1 µM; with DU-145 prostate, over 100 µM; with SF-268 CNS, over 100 µM.

For `C[C@@H]1C[C@H](N)C[C@H](c2ccncc2NC(=O)c2ccc(F)c(-c3c(F)cccc3F)n2)C1`, the GI50 is 10.4 µM and > 10 µM in the experiment with SK-MEL-28 melanoma; 13.4 µM and > 10 µM in the experiment on HS 578T breast; 10.6 µM and > 10 µM in the experiment on HOP-62 NSCLC; 17.1 µM and > 10 µM in the experiment on SK-MEL-2 melanoma; 2.73 µM and 1.48 µM with HL-60(TB) leukemia; 15.9 µM and > 10 µM in the experiment with A549 NSCLC. Moreover, the GI50 with RPMI-8226 leukemia is 0.592 µM and 0.939 µM; in the experiment with DU-145 prostate, 13.5 µM and > 10 µM; in the experiment with SF-268 CNS, 10.8 µM and > 10 µM. In addition, the TGI in the experiment with SK-MEL-28 melanoma was 22.6 µM and > 10 µM; with HS 578T breast, 49 µM and > 10 µM; with HOP-62 NSCLC, 25.2 µM and > 10 µM; in the experiment on SK-MEL-2 melanoma, 34.8 µM and > 10 µM; in the experiment with HL-60(TB) leukemia, 12.1 µM and > 10 µM; with A549 NSCLC, 31.6 µM and > 10 µM. Besides, the TGI in the experiment on RPMI-8226 leukemia is 11.4 µM and > 10 µM; in the experiment on DU-145 prostate, 26.3 µM and > 10 µM; in the experiment with SF-268 CNS it was 25.3 µM and > 10 µM.

In the case of `Cc1ccc(OCC2CO2)c(Br)c1` (stereo not drawn), the TGI in the experiment with SK-MEL-28 melanoma was 85.1 µM; in the experiment with HS 578T breast, over 100 µM; with NCI-H226 lung it was 34.1 µM; in the experiment on HOP-62 NSCLC it was over 100 µM; in the experiment on HL-60(TB) leukemia it was over 100 µM; in the experiment on A549 NSCLC, 62.2 µM. Besides, the TGI was 74.9 µM with RPMI-8226 leukemia, over 100 µM in the experiment on DU-145 prostate and 42.6 µM in the experiment with SF-268 CNS.
